Target: T1, purified pig brain-derived tubulin (Sus scrofa, UniProt P02550+P02554)
T1 construct: purified pig brain-derived tubulin (final concentration: 2 mg/mL); purchased Cytoskeleton, Inc. (Denver, Colo., USA); host or cells: pig brain (tissue-purified)
Assay: Example 7: fluorescence-based assay of tubulin polymerization reaction
Type: biochemical
Experimental: S-nitroso-N-acetyl-D,L-penicillamine (SNAP), which is a NO donor, was purchased from Cayman Chemical Co. (Ann Arbor, Mich., USA) and used. A tubulin polymerization analysis kit was purchased from Cytoskeleton, Inc. (Denver, Colo., USA) and used. For paclitaxel, a paclitaxel included in the analysis kit was used as paclitaxel. Docetaxel was purchased from Sigma-Aldrich Co. (St. Louis, Mo., USA) and was used as docetaxel.
A fluorescence-based assay of tubulin polymerization reaction was carried out according to the manufacturer's instruction of the kit. That is, purified pig brain-derived tubulin (final concentration: 2 mg/mL) and SNAP (final concentration: 200 or 500 μmol/L) were incubated at room temperature for 15 minutes or longer in the buffer solution included in the kit. Subsequently, paclitaxel (final concentration: 3 μmmol/L) or docetaxel (final concentration: 1 μmol/L), and […] (final concentration: 1 mmol/L) were added to this buffer mixture, and then was incubated for 60 minutes at 37° C. During this incubation, the fluorescence intensity (measurement wavelength: excitation 350 nm/fluorescence 435 nm) was measured every one minute by using a microplate reader (Spectramax, Molecular Devices, LLC, Sunnyvale, Calif., USA). The value of fluorescence intensity was expressed as a percentage relative to the SNAP and taxane-untreated group by using the value obtained 60 minutes after the initiation of the reaction, which corresponded to the equilibrium steady-state phase, and the average value for three experiments was taken as the value.
The results are expressed as the mean value (Mean)±standard error (SEM) of five independent experiments. A comparison between a paclitaxel- or docetaxel-treated group and an untreated group was carried out by an unpaired statistical test (Student's t-test) of the difference between two groups. A comparison between a SNAP-untreated group (control group) and SNAP-treated groups (200 μmol/L and 500 μmol/L) in the presence or absence of the taxane-family drugs was carried out by Dunnett's multiple comparison test. A difference value of less than 5% was considered to be statistically significant. For the data processing, Graphpad Prism version 5.03 was used.

[1] = SNAP 200 or 500 μmol/L, 60 minutes

T1 sequence (P02554 whole entry): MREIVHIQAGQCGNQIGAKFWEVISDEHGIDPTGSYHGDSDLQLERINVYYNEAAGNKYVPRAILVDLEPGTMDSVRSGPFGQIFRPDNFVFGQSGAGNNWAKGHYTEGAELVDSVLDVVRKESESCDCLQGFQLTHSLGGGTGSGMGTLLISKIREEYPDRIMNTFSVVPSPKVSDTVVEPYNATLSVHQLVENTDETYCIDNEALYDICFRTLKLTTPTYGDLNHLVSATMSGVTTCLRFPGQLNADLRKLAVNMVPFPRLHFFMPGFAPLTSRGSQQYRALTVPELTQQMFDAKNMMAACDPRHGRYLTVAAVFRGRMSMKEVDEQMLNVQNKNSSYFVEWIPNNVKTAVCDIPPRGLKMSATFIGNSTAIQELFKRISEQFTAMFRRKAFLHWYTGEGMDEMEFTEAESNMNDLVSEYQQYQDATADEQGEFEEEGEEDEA
T1 sequence (P02550 whole entry): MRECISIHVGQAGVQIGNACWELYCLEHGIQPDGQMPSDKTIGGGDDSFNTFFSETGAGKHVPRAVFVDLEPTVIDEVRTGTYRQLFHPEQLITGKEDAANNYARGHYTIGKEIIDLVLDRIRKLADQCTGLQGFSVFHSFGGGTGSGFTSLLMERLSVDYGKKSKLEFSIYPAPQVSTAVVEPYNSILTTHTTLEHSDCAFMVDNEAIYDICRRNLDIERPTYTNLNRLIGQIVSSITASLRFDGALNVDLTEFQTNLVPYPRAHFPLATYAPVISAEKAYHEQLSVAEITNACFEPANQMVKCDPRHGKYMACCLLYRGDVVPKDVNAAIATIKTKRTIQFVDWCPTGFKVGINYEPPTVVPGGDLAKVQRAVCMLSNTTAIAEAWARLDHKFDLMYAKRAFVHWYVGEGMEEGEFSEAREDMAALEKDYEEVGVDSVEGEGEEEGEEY

SMILES | action of SNAP on the spontaneous tubulin polymerization reaction (SNAP 200 or 500 μmol/L, absence of taxanes, 60 minutes) | action of SNAP on the tubulin polymerization reaction promoted by docetaxel [1] | action of SNAP on the tubulin polymerization reaction promoted by paclitaxel [1] | tubulin polymerization (fluorescence intensity) as compared with the taxane-untreated group (docetaxel final concentration 1 μmol/L, 60 minutes after initiation, P<0.001) [%]
CC(=O)NC(C(=O)O)C(C)(C)SN=O (racemic) [SNAP, S-nitroso-N-acetyl-D,L-penicillamine] | significantly suppressed | significantly suppressed | significantly suppressed | –
CC(=O)O[C@@]12CO[C@@H]1C[C@H](O)[C@@]1(C)C(=O)[C@H](O)C3=C(C)[C@@H](OC(=O)[C@H](O)[C@@H](NC(=O)OC(C)(C)C)c4ccccc4)C[C@@](O)([C@@H](OC(=O)c4ccccc4)[C@H]21)C3(C)C [docetaxel] | – | – | – | 184.1
